Assay results taken from a melting point compilation (Tetko et al.; mined from patent text by program, amines drawn as free bases though some values may be those of a salt).

Point of comparison: `CS(=O)(=O)c1ccc(C(=O)N[C@H]2CC[C@H](CCN3CCN(c4nccc5c4OCC5)CC3)CC2)s1`, melting point 212 °C. Against it:
- COc1ccc(NC(=O)c2ccc(F)c(F)c2)cc1NCc1cccc(C(=O)O)c1 — higher, 218 to 221 °C
- Cc1c(NC(=O)CC(C)(C)C)cc2c(c1C)O[C@@H](C)[C@H]2c1ccc(C(C)C)cc1 (relative stereo) — lower, 94 to 95 °C
- OCCN1CCC(=C2c3ccccc3Oc3ccc(Br)cc32)CC1 — lower, 142 to 146 °C
- COc1cc(Cc2c(N)nc(N)nc2O)cc(OC)c1OC — higher, 275 to 276 °C
- c1ccc2c(c1)CN(Cc1nc3ccccc3[nH]1)C2 — lower, 172 to 174 °C
- COC1(C(=O)CCc2ccc(-c3ccc(O)cc3)cc2)C=CC(Cl)=CC1N (stereo unspecified) — lower, 145 to 150 °C
- O=C(O)C(=CNc1ccc(O)c(=O)cc1)C(=O)O — lower, 175 to 176 °C
- CC(C)(C)c1cc(OCCCCCCc2nnn[nH]2)cc(C(C)(C)C)c1 — lower, 113 to 115 °C
- CCN(CC)c1nc2ccccc2n2c(C(F)(F)F)nnc12 — lower, 155 to 157 °C
- O=C1Nc2ccc(C(F)(F)F)cc2C1c1nc(Cl)nc2nn(C3CCCC3)cc12 (stereo unspecified) — higher, > 300 °C
- COc1ccc(C2CN(C)C(=O)O2)cc1OC (stereo unspecified) — lower, 132 to 133 °C
- CCCCCCCCCCCCCCOCC(COCCCCCCCCCCCCCC)(CC(=O)N(C)C)CC(=O)N(C)C — lower, 52 to 54 °C
- CCNC(=O)c1ccc(Cc2ccccc2)cn1 — lower, 77 to 78 °C
- CS(=O)(=O)c1ccc(-n2nc(C(F)(F)F)cc2-c2ccc(-c3cscn3)c(Cl)c2)cc1 — lower, 128 to 130 °C
- CC(=O)N(C)c1c(I)c(NC(=O)CCCCCCCC(=O)O)c(I)c(C(=O)O)c1I — lower, 205 to 208 °C
- Cc1ccccc1P(=NC(=O)OC1CCOC1)(c1ccccc1)c1ccccc1 (stereo unspecified) — lower, 118 to 119 °C
- CC1(C)CC(=O)Nc2cc3nc(-c4cc5ccccc5[nH]4)[nH]c3cc21 — higher, 264 to 267 °C
- CC(=O)Nc1cccc(-c2cccnc2)c1 — lower, 72 to 74 °C
- Cc1cccc2ncc(C(=O)Nc3ccc(F)cc3)c(=O)n12 — lower, 202 to 204 °C
- COc1cc2c(c(Cl)c1Cl)C(=O)C(C)C2 (stereo unspecified) — lower, 129 °C
- COc1ccc(CNc2nnc(-n3ccnc3)c3ccc(Cl)cc23)cc1Cl — higher, 221 to 222 °C
- CC(=O)Nc1ccc(C(=O)N2CCOCC2)cc1N — lower, 198 to 200 °C
- Cc1cc(C)c(C(C(N)=O)C(N)=O)c(C)c1 — lower, 177 to 179 °C
- CCc1c2n(c3ccccc13)C(=O)C(=Cc1ncn(C(c3ccccc3)(c3ccccc3)c3ccccc3)c1C)CC2 — higher, 217 to 220 °C
- CCOc1c(C(=O)c2cccs2)cnc2c1cnn2Cc1ccco1 — lower, 85 to 87 °C
- Clc1ccc([C@H]2CC[C@H](CBr)CC2)cc1 — lower, 36 to 38 °C
- Fc1ccc(C(CN2CCOCC2)=C2SCCCS2)cc1 — lower, 104 to 106 °C
- O=C(CCc1c(C(=O)OCCN2CCOCC2)[nH]c2cc(Cl)cc(Cl)c12)OCCN1CCOCC1 — lower, 110 to 112 °C
- COc1ccc(C(=O)Nc2ccccc2)cc1Nc1ccccc1 — lower, 194 to 195 °C
- CS(=O)(=O)NCCCCn1c(-c2ccccc2)nc2c(N)nc3ccccc3c21 — higher, 234 to 235 °C
- O=C(O)C1Cc2sccc2C(=O)N1Cc1ccccc1 (stereo unspecified) — higher, 258 °C
- c1cc2cc([C@@H]3CO3)ccc2s1 — lower, 72 to 76 °C
- CCOC(=O)c1cnc2n(c1=O)C(C)CCC2=NN (stereo unspecified) — lower, 199 to 200 °C
- O=C(O)[C@@H](CCCN1C(=O)c2ccccc2C1=O)NS(=O)(=O)c1ccc(Oc2ccccc2)cc1 — lower, 139 to 140 °C
- COc1cccc2c1Cc1ccccc1C2(CCO)CCO — lower, 164 to 167 °C
- Nc1nc2ccc(S(=O)(=O)n3c(CCCC(=O)O)cc4nc(Cl)ccc43)cc2s1 — higher, > 250 °C
- COc1cc2cc(OCc3ccccc3)cnc2cc1OC — lower, 146 to 148 °C
- CC(C)(C)c1cc(-c2nn(C3(C)COC(=O)O3)c3ncccc23)cc(C(C)(C)C)c1O (stereo unspecified) — lower, 190 to 191 °C
- O=C(NC1CCCCC1)NC1N=C(C2CCCCC2)c2ccccc2N(CC(=O)N2CC3CCC(CC3)C2)C1=O (racemic) — lower, 195 to 197 °C
- COc1ccn2nc(-c3ccccc3F)c(-c3ccc(=O)n(C)n3)c2c1 — higher, 220 to 222 °C
- Cc1cc(-c2ccc(Cl)cc2)nc2c(C(=O)Nc3cccc(S(N)(=O)=O)c3)cnn12 — higher, 308 to 310 °C
- CN(C)c1cccc2c1C(=O)N(C1(C(N)=O)CCCCC1)C2=O — lower, 166 to 169 °C
- COc1ccccc1C(=O)ON1C(=O)CCC1=O — lower, 180 to 182 °C
- COC(=O)c1cccc(C)c1[N+](=O)[O-] — lower, 72 °C
- O=C(O)c1cc(=O)n(Cc2ccc(S(=O)(=O)O)cc2S(=O)(=O)O)[nH]1 — higher, > 300 °C
- COC(=O)c1ccc(COC2CC(n3cc(F)c(=O)[nH]c3=O)OC2CO)cc1 (stereo unspecified) — lower, 169 to 170 °C
- Cc1cccc(-c2nc(N)sc2-c2ccc(F)c(-c3cnn(C)c3)c2)n1 — lower, 153 to 155 °C
- CCCC[C@H]1COC(c2ccc(OCCCCCCCc3cc(C)no3)cc2)=N1 — lower, 122 to 123 °C
- CC1=C(C(=O)OCc2ccccc2)C(c2ccccc2C(F)(F)F)c2c(ccnc2OC(C)C)N1 (stereo unspecified) — lower, 131 °C
- O=C(NO)c1ccc(CNC(=O)c2[nH]c(-c3ccccc3)cc2-c2ccc(Br)cc2)cc1 — lower, 174 to 176 °C
- CC(=O)NC1(C)Cc2ccccc2C(C)c2ccccc2C1 (stereo unspecified) — not separable, 185 to 224 °C
- NC(=O)CC1Nc2cccc3cccc(c23)S1(=O)=O (stereo unspecified) — lower, 195 to 196 °C
- Cn1nc(-c2ccccc2)cc1C(=O)Nc1ccc(OCC(C)(C)C)c(C#N)c1 — higher, 223 to 224 °C
- CCCCCCCCCCC1(CCCCCCCCCC)c2cc(-c3cccs3)ccc2-c2ccc(-c3cccs3)cc21 — lower, 59.9 to 60.8 °C
- Cc1cc(-n2ccnc2)c2cccc(OCc3c(Cl)ccc(S(=O)(=O)N4CCCC[C@H]4C(=O)O)c3Cl)c2n1 — lower, 208 °C
- CCCCCCCC[C@H](N[C@@H](C)C(=O)N1C(=O)N(Cc2ccccc2)C[C@H]1C(=O)O)C(=O)OCC — lower, 86 to 88 °C
- CS(=O)(=O)c1ccc(-c2nc(C(F)(F)F)nc(Cl)c2-c2ccc(F)cc2)cc1 — lower, 195 to 197 °C
- COc1ccc(N2CCOCC2)c2sc(NC(=O)N(C)[C@H]3CC[C@H](O)CC3)nc12 — lower, 158 to 162 °C
- CCn1ncc(C(=O)c2ccc(S(C)(=O)=O)c(C(=O)OC)c2C)c1O — lower, 150 to 152 °C
- CCNC(=O)Nc1nc2cc(-c3cccnc3)cc(-c3ccc(C)cn3)c2s1 — higher, 231 °C
- CON=C(N)Nc1nccc(C)n1 — lower, 152 °C
- COC1=CC(C=C(C#N)C(=O)O)CC(OC)=C1OC (stereo unspecified) — lower, 102 to 105 °C
- Clc1ccc(C2CCc3cc(Cl)ccc3O2)cc1 (stereo unspecified) — lower, 99 to 100 °C
- O=C(Nc1nccs1)c1c(C(F)(F)F)nc(-c2ccccc2)c(-c2ccccc2)c1O — higher, 256 °C
- CC(C)(C)OC(=O)N1CCC[C@H](COc2ccccc2O)C1 — lower, 98 to 101 °C
- COc1ccc(C(C#N)C(C)C)cc1OC (stereo unspecified) — lower, 45.5 to 49 °C
- CC(C)(C)c1nc(-c2nn(-c3ccc(F)cc3F)c3c2C2CCC3C2)n[nH]1 (stereo unspecified) — higher, 268 to 269 °C
- C[C@]1(CN2CCC(OCCCc3ccc(Cl)cc3)CC2)Cn2cc([N+](=O)[O-])nc2O1 — lower, 88.8 to 91.9 °C
- O=C(C=Cc1ccc(NC(=O)c2ccc3ccccc3c2)cc1)NO — higher, 231 to 233 °C
- O=C(O)COc1ccc2c(-c3ccccn3)noc2c1Cl — higher, 255 to 256 °C
- CCOC(=O)C1C=Nc2c(c(F)cc3cc(C(=O)N(C)Cc4ccccc4)cnc23)C1=O (stereo unspecified) — lower, 201 to 203 °C
- CCC(CC)O[C@@H]1C=C(C(=O)OC)C[C@H](CC(O)CN=[N+]=[N-])[C@H]1NC(C)=O (stereo partly specified) — lower, 92 to 93 °C
- CC(C)(C)OC(=O)CN1CCN[C@@H](Cc2ccc(OC(C)(C)C)cc2)C1=O — lower, 124 to 126 °C
- N#Cc1cccc(NCCC(=O)O)c1 — lower, 119 °C
- O=C(O)COC1c2ccccc2COc2ccc(/C=C/c3ccc4cc(F)c(F)cc4n3)cc21 (stereo unspecified) — lower, 206 to 208 °C
- C=CCOC(=O)c1c(Cl)c(OC)cc(O[Si](C)(C)C(C)(C)C(C)C)c1C=O — lower, 97 °C
- O=C(O)CCc1cn(Cc2cc(OCc3ccccc3)cc(OCc3csc(-c4cnccn4)n3)c2)cc1-c1ccccc1 — lower, 109 to 110 °C
- C=C(C(=O)OCC)c1cc(-c2cc3c(cc2C)C(C)(C)CCC3(C)C)ccc1OCOC — lower, 100 to 101 °C
- CNC1C(O)CC2C3CCC4CC(OC(C)=O)CCC4(C)C3CCC21C (stereo unspecified) — lower, 197 to 199 °C
- O=C(O)C(CBr)N(C(=O)c1ccccc1)N1C(=O)CCC1=O (stereo unspecified) — lower, 174 to 177 °C
- O=C(CC(=O)c1ccc(F)cc1)c1ccc(F)cc1 — lower, 70 to 72 °C
- Cc1c(F)c(=O)n(-c2cc(C(=O)OC(C)C)c(Cl)cc2F)c(=O)n1C — lower, 112 to 115 °C
- CCCCCCCOc1ccc(-c2ncc(C#N)cn2)cc1 — lower, 102 °C
- CC(C)(C)c1cc(C(=O)NCC(=O)O)ccc1OCc1ccccc1 — lower, 172 to 174 °C
- Cc1nc(-c2cccc(C(F)(F)F)c2)c2nc(-c3ccccc3)cc-2[nH]1 — lower, 206 to 208 °C
- Cc1ccc(S(=O)(=O)N(c2ccc(C#N)cc2C#N)C(C)C)cc1 — lower, 157 to 158 °C
- COc1cc(CCC2(CCc3ccc(O)c(OC)c3)CC(O)=C(Sc3cc(C)c(OCCO)cc3C(C)(C)C)C(=O)O2)ccc1O — lower, 76 to 82 °C
- NC(=O)c1[nH]cnc1OC1OC(COCc2ccccc2)C(OCc2ccccc2)C1OCc1ccccc1 (stereo unspecified) — higher, 215 to 216 °C
- C[Si](C)(C)OC(Cn1ccnc1)(Cn1cncn1)c1ccc(F)cc1F (stereo unspecified) — lower, 87 to 89 °C
- CN(C)CCN1C(=O)C(NC(=O)CCc2ccc(Cl)cc2Cl)N=C(c2ccccc2)c2ccccc21 (stereo unspecified) — lower, 199 to 201 °C
- c1cc(CCCCn2ccnc2)cc(OCc2ccc3oc(-c4cccs4)nc3c2)c1 — lower, 97 to 98 °C
- CCCCOc1cc(C(=O)O)cc([N+](=O)[O-])c1-c1ccccc1 — lower, 133 to 134 °C
- COc1cc(C(C)=O)ccc1OCCCCN1CCC(c2noc3ccccc23)CC1 — lower, 99 to 101 °C
- COC(=O)CCNC(=O)C1CCCN1S(=O)(=O)c1ccc(Cl)c(COc2cccc3c(C)cc(C)nc23)c1Cl (stereo unspecified) — lower, 64 to 67 °C
- COc1ccc(C2=NNC(=O)[C@H]3CCCC[C@@H]23)cc1OC1CCCC1 (relative stereo) — lower, 175 to 176 °C
